Laboratory results from patent US8609656B2, “Heteroarylphenylurea derivative” (Chugai Seiyaku Kabushiki Kaisha, priority 2004, dated 2013).
In brackets after ≈: the same amount, converted by molar mass. Where a name gives a salt, the structure may show the parent alone.

How the values were obtained:
[1] = test system: VEGF non-dependent human umbilical vein endothelial cells (HUVEC); test: Cell growth inhibition test, VEGF non-dependent HUVEC; format: cell-based; conditions: 72 hours, WST-1, read-out: HUVEC (VEGF Nondependence), 50% Growth Inhibition Concentration (IC50 value)
Experimental: (§1) Cell Growth Inhibition Test
(§2) With respect to the compounds relating to the present invention and the known compound (BAY 43-9006), cell growth inhibition activity was measured.
(§3) A sample compound was in-series diluted with dimethyl sulfoxide, and then was 1/50 diluted with a Ca^2+- and Mg^2+-free phosphate-bufferized physiological saline and its 20 μL was poured to a 96-well plate. […] Each of these cell suspensions was dividedly poured to the sample added plate in 180 μL/well and cultured in a 5% carbon dioxide incubator at 37° C. After 72 hours, 20 μL of WST-(HCT 116, a product of Dojin) or WST-1 (HUVEC, a product of Roche diagnostics) was added thereto to each well and the absorbance at 450 nm (reference wavelength: 650 nm) was measured. From the growth inhibition ratio of addition of the sample compound to no-addition of the sample compound as a reference, the 50% growth inhibition IC50) of the sample compound was calculated.
(§4) With respect to the group of representative compounds of the present invention, the IC50 values of HCT 116 and HUVEC (VEGF nondependent growth and VEGF dependent growth) are shown in Tables 5-1 to 5-3.

[2] = test system: human colorectal cancer cell strain HCT 116; test: Cell growth inhibition test, HCT 116; format: cell-based; conditions: 72 hours, read-out: HCT116, 50% Growth Inhibition Concentration (IC50 value)
Experimental: as §1, §2, §3, §4

VEGF dependent HUVEC = test: Cell growth inhibition test, VEGF dependent HUVEC; format: cell-based; conditions: Homo sapiens, 20 ng/mL of VEGF, 72 hours, WST-1, read-out: HUVEC (VEGF Dependence), 50% Growth Inhibition Concentration (IC50 value)
Experimental: as §1, §2, §3, §4

[3] = target: T1, recombinant Raf-1 protein (activated type GST-Raf-1) (Homo sapiens, UniProt P04049); test: RAF-1 enzyme inhibition test (33P incorporation into MEK 1 protein); format: biochemical; conditions: 10 μM ATP, GST-MEK1 substrate, 30° C., 45 minutes; read-out: Raf-1 Enzyme Inhibition, 50% Enzyme Inhibition Concentration (IC50 value)
T1 construct: fused on or other part: GST tag fused to Raf-1
Experimental: RAF-1 Enzyme Inhibition Test
With respect to the compounds relating to the present invention and the known compound (BAY 43-9006):
[drawing 660] the Raf-1 protein inhibition activity was measured. The enzymatic reaction was measured by incorporation of ^33P-phosphoric acid into MEK 1 protein by a recombinant Raf-1 protein. The activity was measured by preparing 50 μL of a reaction solution containing a dimethyl sulfoxide solution of the compound relating to the present invention or the compound BAY 43-9006 at a varied concentration [as the final concentration, the reaction solution containing […] of TRIS hydrochloric buffer (pH 7.5), 1 mM of dithiothreitol, 100 mM of sodium chloride, 10 mM of potassium fluoride, 1 mM of sodium vanadate, 10 mM of magnesium chloride, 10 μM of adenosine triphosphate (ATP, containing ^33P-ATP of 12580Bq), 2 μg of GST-MEK1 and 25 ng of an activated type GST-Raf-1]; keeping the reaction solution at 30° C. for 45 minutes; adding 100% trichloroacetic acid to the reaction solution in an amount twice the volume of the reaction solution to precipitate a proteinous component; recovering the precipitate on a glass filter; and measuring the radioactivity of the recovered product. The 50% inhibition concentration (IC50) was obtained from the inhibition ratio to a sample-free reference.
The compound BAYT 43-9006 was prepared on the basis of the description (Example 41) of WO 00/42012.

[4] = Solubility to fasted state simulated intestinal fluid; format: physicochemical; conditions: fassif, kinetic from dmso stock, fasted state simulated intestinal fluid (pH 6.5), 37° C.
Experimental: Method of Measuring Solubility to Fasted State Simulated Intestinal Fluid
To a 96-well plate, 2 μL of a dimethyl sulfoxide solution of the compound relating to the present invention or that of the compound BAY 43-9006 was poured at one time, respectively, and fasted state simulated intestinal fluid (pH 6.5) was added 200 μL by 200 μL, and the plate was shaken at 37° C. for 20 hours. The solution was filtered with a membrane filter and 101 μL of the filtrate was transferred to an UV plate, and 100 μL of a mixed solution of ethanol:water=2:1 was added thereto. On the other hand, as a standard solution, 2 μL of a dimethyl sulfoxide solution was added to a solution containing 4 μL of dimethyl sulfoxide, 400 μL of ethanol and 200 μL of water and the obtained solution was transferred 101 μL by 101 μL to the UV plate and to this UV plate, the simulated fasting bile-containing intestinal juice (pH 6.5) was added 100 μL by 100 μL. The solubility was calculated by the following equation. Solubility=(absorbance of sample solution-blank)/(absorbance of standard solution-blank)×[…]
165 μL is a concentration of the standard solution.
Composition of Fasted State Simulated Intestinal Fluid
Fasted state simulated intestinal fluid was prepared in accordance with E. Galia et al., Pharm. Res., 698, 1998.
To about 90 mL of water, 161 mg of taurocholic acid, 59 mg of L-α-phosphatidylcholine, 0.39 g of potassium dihydrogenphosphate and 0.77 g of potassium chloride were added and the pH of the mixture solution […] and the mixture solution was filtered with a membrane filter.

T1 sequence (P04049 349-648 limits assumed): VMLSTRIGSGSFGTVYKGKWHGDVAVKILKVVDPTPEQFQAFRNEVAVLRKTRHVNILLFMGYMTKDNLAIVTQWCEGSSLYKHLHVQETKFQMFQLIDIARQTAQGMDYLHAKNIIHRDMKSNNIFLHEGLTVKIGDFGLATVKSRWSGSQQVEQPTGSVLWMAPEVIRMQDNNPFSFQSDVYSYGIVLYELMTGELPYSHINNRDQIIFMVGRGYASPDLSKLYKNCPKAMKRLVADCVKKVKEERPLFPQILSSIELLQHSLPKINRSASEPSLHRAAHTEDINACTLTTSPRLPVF

| Compound | IC50 [1] | IC50 [2] | IC50 (VEGF dependent HUVEC) | IC50 [3] | solubility at 20 h [4] |
| --- | --- | --- | --- | --- | --- |
| O=C(Nc1ccc(-n2cnc3cnccc32)cc1)Nc1ccc(Cl)c(C(F)(F)F)c1 [Table 1, Compound 1, 1-(4-chloro-3-(trifluoromethyl)phenyl)-3-(4-imidazo[4,5-c]pyridin-1-ylphenyl)urea] | 2100 nM | 1200 nM | 92 nM | – | – |
| Nc1ncnc2c1ncn2-c1ccc(N(O)C(=O)Nc2ccc(Cl)c(C(F)(F)F)c2)cc1 [Table 1, Compound 49, 1-[4-(6-Aminopurin-9-yl)phenyl]-3-(4-chloro-3-(trifluoromethyl)phenyl)-1-hydroxyurea hydrochloride] | 4100 nM | 7300 nM | 190 nM | – | – |
| CNc1ncnc2c1ncn2-c1ccc(N(O)C(=O)Nc2ccc(Cl)c(C(F)(F)F)c2)cc1 [Table 1, Compound 53, 3-(4-Chloro-3-(trifluoromethyl)phenyl)-1-hydroxy-1-[4-(6-(methylamino)pruin-9-yl)phenyl]urea] | 2800 nM | 3400 nM | 440 nM | – | – |
| CNc1ncnc2c1ncn2-c1ccc(NC(=O)Nc2cccc(C(F)(F)F)c2)cc1 [Table 2, Compound 19, 1-[4-(6-(Methylamino)purin-9-yl)phenyl]-3-(3-(trifluoro-methyl)phenyl)urea] | 1900 nM | 1100 nM | 57 nM | – | – |
| C=Cc1nc2c(N)ncnc2n1-c1ccc(NC(=O)Nc2cc(CN3CCN(C)CC3)cc(C(F)(F)F)c2)cc1 [Table 2, Compound 28] | – | – | – | 69 nM | 238 µg/mL (≈ 431 µM) |
| CNc1ncnc2c1ncn2-c1ccc(NC(=O)Nc2ccc(N(C)C)c(C(F)(F)F)c2)cc1 [Table 2, Compound 42, 1-(4-Dimethylamino-3-(trifluoromethyl)phenyl)-3-[4-(6-(methylamino)purin-9-yl)phenyl]urea] | 4000 nM | 1800 nM | 56 nM | – | – |
| Nc1ncnc2c1ncn2-c1ccc(NC(=O)Nc2cc(Br)cc(C(F)(F)F)c2)cc1 [Table 2, Compound 43] | 3800 nM | 1800 nM | 150 nM | – | – |
| CNc1ncnc2c1ncn2-c1ccc(NC(=O)Nc2ccc(CN3CCN(C)CC3)c(C(F)(F)F)c2)cc1 [Table 2, Compound 46, 1-[4-(6-(Methylamino)purin-9-yl)phenyl]-3-[4-(4-methylpiperazin-1-ylmethyl)-3-(trifluoromethyl)phenyl]urea] | 130 nM | 240 nM | 2.5 nM | – | – |
| CNc1ncnc2c1ncn2-c1ccc(NC(=O)Nc2ccc(CN3CCOCC3)c(C(F)(F)F)c2)cc1 [Table 2, Compound 47, 1-[4-(6-(Methylamino)purin-9-yl)phenyl]-3-(4-morpholin-4-ylmethyl-3-(trifluoromethyl)phenyl)urea] | 700 nM | 900 nM | 29 nM | – | – |
| CNc1ncnc2c1ncn2-c1ccc(NC(=O)Nc2cc(N(C)C)cc(C(F)(F)F)c2)cc1 [Table 2, Compound 48, 1-(3-Dimethylamino-5-(trifluoromethyl)phenyl)-3-[4-(6-(methylamino)purin-9-yl)phenyl]urea] | 3700 nM | 2400 nM | 280 nM | – | – |
| CNc1ncnc2c1ncn2-c1ccc(NC(=O)Nc2ccc(OCCN3CCOCC3)c(C(F)(F)F)c2)cc1 [Table 2, Compound 53, 1-[4-(6-(Methylamino)purin-9-yl)phenyl]-3-[4-(2-morpholin-4-yl-ethoxy)-3-(trifluoromethyl)phenyl]urea] | 1700 nM | 1900 nM | 650 nM | – | – |
| CNc1ncnc2c1ncn2-c1ccc(NC(=O)Nc2ccc(CCCN(C)C)c(C(F)(F)F)c2)cc1 [Table 2, Compound 74] | 900 nM | 1200 nM | 83 nM | – | – |
| CNc1ncnc2c1ncn2-c1ccc(NC(=O)Nc2ccc(CCCN3CCOCC3)c(C(F)(F)F)c2)cc1 [Table 2, Compound 76, 1-[4-(6-(Methylamino)purin-9-yl)phenyl]-3-[4-[3-morpholin-4-yl-propyl]-3-(trifluoromethyl)phenyl]-urea] | 1000 nM | 900 nM | 57 nM | – | – |
| CNc1ncnc2c1ncn2-c1ccc(NC(=O)Nc2ccc(CCCN3CCCCC3)c(C(F)(F)F)c2)cc1 [Table 2, Compound 78, 1-[4-(6-(Methylamino)purin-9-yl)phenyl]-3-[4-[3-piperidin-1-yl-propyl]-3-(trifluoromethyl)phenyl]-urea] | – | – | – | 140 nM | – |
| CNc1ncnc2c1ncn2-c1ccc(NC(=O)Nc2cc(OC3CCN(C)CC3)cc(C(F)(F)F)c2)cc1 [Table 2, Compound 91, 1-[4-(6-(Methylamino)purin-9-yl)phenyl]-3-[3-(1-methyl-piperidin-4-yloxy)-5-(trifluoromethyl)phenyl]-urea] | – | – | – | 270 nM | – |
| Nc1ncnc2ncn(-c3ccc(NC(=O)Nc4ccc(Cl)c(C(F)(F)F)c4)cc3)c12 [Table 3, Compound 1, 1-[4-(6-(Aminopurin-7-yl)phenyl)-3-(4-chloro-3-(trifluoromethyl)phenyl)urea hydrochloride] | – | – | – | 51 nM | – |
| CN1CCN(Cc2cc(NC(=O)Nc3ccc(-n4cnc5ncnc(N)c54)cc3)cc(C(F)(F)F)c2)CC1 [Table 3, Compound 4] | – | – | – | 53 nM | 219 µg/mL (≈ 417 µM) |
| CN(C)CCNC(=O)c1cc(NC(=O)Nc2ccc(-n3cnc4ncnc(N)c43)cc2)cc(C(F)(F)F)c1 [Table 3, Compound 9, 3-{3-[4-(6-Aminopurin-7-yl)phenyl]ureido}-N-(2-(dimethylamino)ethyl)-5-(trifluoromethyl)benzamide] | – | – | – | 85 nM | – |
| CCN1CCN(Cc2ccc(NC(=O)Nc3ccc(-n4cnc5c(NC)ncnc54)cc3)cc2C(F)(F)F)CC1 [Table 3, Compound 14, 1-[4-(4-Ethyl-piperazin-1-ylmethyl)-3-(trifluoromethyl)phenyl]-3-[4-(6-(methylamino)purin-9-yl)phenyl]urea] | 200 nM | 300 nM | 4 nM | – | – |
| CNc1ncnc2c1ncn2-c1ccc(NC(=O)Nc2cc(CCN3CCCCC3)cc(C(F)(F)F)c2)cc1 [Table 3, Compound 30, 1-[4-(6-(Methylamino)purin-9-yl)phenyl]-3-[3-(2-piperidin-1-yl-ethyl)-5-(trifluoromethyl)phenyl]urea] | – | – | – | 170 nM | – |
| CNc1ncnc2c1ncn2-c1ccc(NC(=O)Nc2cc(CCN3CCCC3)cc(C(F)(F)F)c2)cc1 [Table 3, Compound 31, 1-[4-(6-(Methylamino)purin-9-yl)phenyl]-3-[3-(2-pyrrolidin-1-yl-ethyl)-5-(trifluoromethyl)phenyl]urea] | – | – | – | 130 nM | – |
| CNc1ncnc2c1ncn2-c1ccc(NC(=O)Nc2cc(CCCN3CCCC3)cc(C(F)(F)F)c2)cc1 [Table 3, Compound 45, 1-[4-(6-(Methylamino)purin-9-yl)phenyl]-3-[3-(3-pyrrolidin-1-yl-propyl)-5-(trifluoromethyl)phenyl]-urea] | – | – | – | 73 nM | 79 µg/mL (≈ 147 µM) |
